Patent US20200181284A1, “EPIGENETIC INHIBITORS FOR SENSITIZING HEMATOLOGIC OR OTHER MALIGNANCIES TO GLUCOCORTICOID THERAPY” (UNIVERSITY OF SOUTHERN CALIFORNIA, priority 2017, published 2020)

How the values were obtained:
Type in all cases: cell-based, human
[1] = test system: GR target genes in NALM6 cells; experiment: RT-qPCR of GR target genes in NALM6 cells; conditions: NALM6 cells, KDM inhibitor
Protocol: RNA was isolated using TRIzol (Invitrogen) according to the manufacturer's instructions. Reverse transcription reaction was performed using Superscript III (ThermoFisher) according to specifications with 1 μg of total RNA as template. Quantitative PCR amplification of the resulting cDNA was performed on a Roche LightCycler 480 using SYBR green I master mix (Roche). mRNA levels were normalized to the level of b-actin mRNA.
FIGS. 40A, 40B, 40C, 40D-1, 40D-2, 40D-3, and 40D-4 show Aurora kinase B inhibitors sensitizing NALM6 cells to GC-induced cell death. As shown in FIGS. 40A and 40B, NALM6 cells were treated with the indicated dex concentration in addition to 0.75 μM ZM447439 (FIG. 40A), 16 nM AZD2811 (FIG. 40B), or equivalent volume of vehicle DMSO for 72 h, and cell survival was measured by a fluorescence metabolic assay. In each condition, the value measured with dex was normalized to the fluorescence value measured with ethanol. Percentage of survival is shown as the mean±SEM of 4 independent experiments and p-values for individual dex concentrations were calculated using a paired t-test. *p≤0.05, **p≤0.01, * * *p≤0.001. F-test comparing the two curves: p≤0.001. Insets show the EC50s that were calculated as the concentration at which half the cells remained alive, compare to vehicle controls. Error bars depict the SEM of 4 independent experiments and p-values were calculated to compare AURKB inhibitor treatment to DMSO using a paired t-test ** p≤0.01, * * *p≤0.001. […] The indicated proteins were then examined by immunoblot. As shown in FIGS. 40D-1, 40D-2, 40D-3, and 40D-4, NALM6 cells pre-treated with AZD2811 (16 nM) or DMSO for 24 h, were then treated for 8 h with 100 nM dex or ethanol. mRNA levels for the indicated GR target genes were measured by RT-qPCR and normalized to β-actin mRNA levels.
FIGS. 54A, 54B, and 54C highlight the GR Target genes that require G9a and GLP as coactivators.

[2] = test system: NALM6 cells; experiment: Immunoblot of apoptosis markers (cleaved caspase 3, caspase 7, PARP1) in NALM6 cells; conditions: NALM6, 24-hour treatment with KDM inhibitor
Protocol: (§1) Cells were treated as indicated, and cell extracts were prepared in RIPA buffer ([…] Tris-HCl, pH 8, 150 mM NaCL, 1 mM EDTA, 1% NP-40, and 0.25% deoxycholate) supplemented with protease inhibitor tablets (Roche Molecular Biochemicals) and phosphatase inhibitors (1 mM NaF, 1 mM Na3VO4, and 1 mM β-glycerophosphate). Protein extracts were incubated overnight at 4° C. with shaking with 1 μg of antibodies against EHMT2 (Sigma G6919), EHMT1 (Millipore 09-078), or pan phospho-threonine (Millipore AB1607). Protein A/G plus agarose beads (Santa Cruz sc-2003) were added, and the mixture was incubated 2 h at 4° C. The immunoprecipitates were separated on SDS-PAGE. […]
FIGS. 40A, 40B, 40C, 40D-1, 40D-2, 40D-3, and 40D-4 show Aurora kinase B inhibitors sensitizing NALM6 cells to GC-induced cell death. As shown in FIGS. 40A and 40B, NALM6 cells were treated with the indicated dex concentration in addition to 0.75 μM ZM447439 (FIG. 40A), 16 nM AZD2811 (FIG. 40B), or equivalent volume of vehicle DMSO for 72 h, and cell survival was measured by a fluorescence metabolic assay. In each condition, the value measured with dex was normalized to the fluorescence value measured with ethanol. Percentage of survival is shown as the mean±SEM of 4 independent experiments and p-values for individual dex concentrations were calculated using a paired t-test. *p≤0.05, **p≤0.01, * * *p≤0.001. […]

[3] = test system: EHMT2 phosphorylation; experiment: Phosphorylation of EHMT2 in NALM-6 cells (pan ph-T immunoprecipitation, EHMT2 immunoblot); conditions: NALM-6, 0.75 μM ZM447439, 24 h
Protocol: as §1
FIGS. 48A, 48B, 48C, 48D, 48E, and 48F show the effect of AURKB inhibitors on EHMT2 phosphorylation and dex-induced cell death. […] In each condition, the value measured with dex was normalized to the fluorescence value measured with ethanol. Percentage of survival is shown as the mean±SEM of 4 independent experiments and p-values for individual dex concentrations were calculated using a paired t-test. *p≤0.05, **p≤0.01, * * *p≤0.001. […] EC50s were calculated as the concentration at which half the cells remained alive, compare to vehicle controls. Error bars depict the SEM of 4 independent experiments and p-value was calculated to compare ZM treatment to DMSO using a paired t-test **p≤0.01, * * *p≤0.001. […]

SMILES | dex-induced expression of FKBPS (independent of G9a and GLP) [1] | dex-induced expression of G9a/GLP-dependent GR target genes (TXNIP, GILZ, and NFKBIA) [1] | dex-induced cleavage of caspase-3, caspase-7, and PARP1 [2] | phosphorylation of EHMT2 [3]
Clc1ccc(N/N=C(\c2ccccc2)c2ccccn2)nc1 [JIB-04, 5-chloro-N-[(E)-[phenyl(pyridin-2-yl)methylidene]amino]pyridin-2-amine] | no effect | enhanced | enhanced | 
COc1cc2c(Nc3ccc(NC(=O)c4ccccc4)cc3)ncnc2cc1OCCCN1CCOCC1 [ZM447439, N-[4-[[6-methoxy-7-(3-morpholin-4-ylpropoxy)quinazolin-4-yl]amino]phenyl]benzamide] |  |  |  | reduced
